Experimental data reported in patent US9028845B2, “Chimeric immunomodulatory compounds and methods of using the same-IV” (Dynavax Technologies Corporation, priority 2001, dated 2015).
Entries after “also recorded” stand apart in the source; their conditions may differ. No end group written: not given here.

System: human PBMCs
Assay: Human PBMC cytokine response assay (IFN-γ and IFN-α in cell-free medium by ELISA), with or without cPLGA
Format: cell-based
Conditions: for immunomodulatory activity (IFN-γ / IFN-α secretion), in words: used alone (no cPLGA)
[1] = Table 26, mean of donors 28313-28316
[2] = Table 24, mean of donors 28234-28237
[3] = mean of donors 28185-28188, Table 15

5′-TCG-3′-HEG-5′-TCG-3′-HEG-5′-TCG-3′-HEG-5′-TCG-3′-HEG-5′-TCG-3′-HEG-5′-TCG-3′ [Compound C-32]
IFN-α (Table 9, donor 28089): 285 pg/mL
IFN-γ (Table 9, donor 28089): 0 pg/mL
IFN-α (Table 9, donor 28090): 31 pg/mL
IFN-γ (Table 9, donor 28090): 5 pg/mL
IFN-α (Table 9, donor 28098): 46 pg/mL
IFN-γ (Table 9, donor 28098): 11 pg/mL
IFN-α (Table 9, donor 28099): 59 pg/mL
IFN-γ (Table 9, donor 28099): 35 pg/mL
IFN-α mean (Table 9, mean of donors): 106 pg/mL
IFN-γ mean (Table 9, mean of donors): 13 pg/mL
IFN-α (Table 10, donor 28042): 0 pg/mL
IFN-γ (Table 10, donor 28042): 91 pg/mL
IFN-α (Table 10, donor 28043): 0 pg/mL
IFN-γ (Table 10, donor 28043): 19 pg/mL
IFN-α (Table 10, donor 28044): 8 pg/mL
IFN-γ (Table 10, donor 28044): 78 pg/mL
IFN-α (Table 10, donor 28045): 0 pg/mL
IFN-γ (Table 10, donor 28045): 17 pg/mL
IFN-α mean (Table 10, mean of donors): 2 pg/mL
IFN-γ mean (Table 10, mean of donors): 51 pg/mL
activity when formulated with cPLGA, in words (formulated with cPLGA): more activity when formulated with cPLGA; also recorded: induced considerable IFN-γ and IFN-α when formulated with cPLGA
immunomodulatory activity (IFN-γ / IFN-α secretion), in words: had activity when used alone

5′-TGACTGTGA-3′-HEG-5′-ACGTTCG-3′-HEG-5′-AGATGAT-3′ [Compound C-53]
IFN-α (Table 11, donor 28042): 0 pg/mL
IFN-γ (Table 11, donor 28042): 39 pg/mL
IFN-α (Table 11, donor 28043): 0 pg/mL
IFN-γ (Table 11, donor 28043): 27 pg/mL
IFN-α (Table 11, donor 28044): 0 pg/mL
IFN-γ (Table 11, donor 28044): 38 pg/mL
IFN-α (Table 11, donor 28045): 5 pg/mL
IFN-γ (Table 11, donor 28045): 26 pg/mL
IFN-α mean (Table 11, mean of donors): 1 pg/mL
IFN-γ mean (Table 11, mean of donors): 32 pg/mL

(5′-TCGACGT-3′-HEG)x-Ficoll400 (X range = 150-250, ave. 185) See example 49 (not fully specified (C-terminus); cysteine pairing not given here; also: about 185 copies attached to Ficoll400) [Compound C-137]
IFN-a (Table 26, donor 28313): 3612 pg/mL
IFN-g (Table 26, donor 28313): 1 pg/mL
IFN-a (Table 26, donor 28314): 5468 pg/mL
IFN-g (Table 26, donor 28314): 22 pg/mL
IFN-a (Table 26, donor 28315): 624 pg/mL
IFN-g (Table 26, donor 28315): 13 pg/mL
IFN-a (Table 26, donor 28316): 4000 pg/mL
IFN-g (Table 26, donor 28316): 54 pg/mL
IFN-g mean ×4 (Table 26, mean multiplied by 4): 90 pg/mL
IFN-a mean [1]: 3426 pg/mL
IFN-g mean [1]: 22 pg/mL
IFN-α induction, in words (used alone): significant stimulation of IFN-α
immunomodulatory activity (IFN-γ / IFN-α secretion), in words: striking activity in the cytokine response assays

5′-TCGTC-3′-HEG-5′-TCGTC-3′-HEG-5′-TCGTC-3′-HEG-5′-TCGTC-3′ [Compound C-43]
IFN-α (Table 10, donor 28042): 0 pg/mL
IFN-γ (Table 10, donor 28042): 128 pg/mL
IFN-α (Table 10, donor 28043): 14 pg/mL
IFN-γ (Table 10, donor 28043): 536 pg/mL
IFN-α (Table 10, donor 28044): 20 pg/mL
IFN-γ (Table 10, donor 28044): 566 pg/mL
IFN-α (Table 10, donor 28045): 0 pg/mL
IFN-γ (Table 10, donor 28045): 16 pg/mL
IFN-α mean (Table 10, mean of donors): 8 pg/mL
IFN-γ mean (Table 10, mean of donors): 312 pg/mL
activity when formulated with cPLGA, in words (formulated with cPLGA): induced considerable IFN-γ and IFN-α when formulated with cPLGA
IFN-γ induction, in words (used alone): induce IFN-γ when used alone

5′-TCCATTT-3′-HEG-5′-AACGTTC-3′-HEG-5′-TGACGTT-3′ [Compound C-61]
IFN-α (Table 13, donor 28156): 3 pg/mL
IFN-γ (Table 13, donor 28156): 92 pg/mL
IFN-α (Table 13, donor 28157): 0 pg/mL
IFN-γ (Table 13, donor 28157): 179 pg/mL
IFN-α (Table 13, donor 28158): 47 pg/mL
IFN-γ (Table 13, donor 28158): 35 pg/mL
IFN-α (Table 13, donor 28159): 0 pg/mL
IFN-γ (Table 13, donor 28159): 63 pg/mL
IFN-α mean (Table 13, mean of donors): 13 pg/mL
IFN-γ mean (Table 13, mean of donors): 92 pg/mL
IFN-γ induction when formulated with cPLGA, in words (formulated with cPLGA): induced IFN-γ when formulated with cPLGA

5′-ACGTTCG-3′-HEG-5′-AGATGAT-3′-HEG-5′-TCGTCGA-3′ [Compound C-58]
IFN-α (Table 13, donor 28156): 13 pg/mL
IFN-γ (Table 13, donor 28156): 404 pg/mL
IFN-α (Table 13, donor 28157): 30 pg/mL
IFN-γ (Table 13, donor 28157): 288 pg/mL
IFN-α (Table 13, donor 28158): 29 pg/mL
IFN-γ (Table 13, donor 28158): 59 pg/mL
IFN-α (Table 13, donor 28159): 23 pg/mL
IFN-γ (Table 13, donor 28159): 84 pg/mL
IFN-α mean (Table 13, mean of donors): 24 pg/mL
IFN-γ mean (Table 13, mean of donors): 209 pg/mL

(5′-TCGTCGA-3′-HEG)2-glycerol-HEG-5′-AACGTTC-3′ [Compound C-96]
IFN-α (Table 24, donor 28234): 16 pg/mL
IFN-γ (Table 24, donor 28234): 21 pg/mL
IFN-α (Table 24, donor 28235): 120 pg/mL
IFN-γ (Table 24, donor 28235): 239 pg/mL
IFN-α (Table 24, donor 28236): 608 pg/mL
IFN-γ (Table 24, donor 28236): 354 pg/mL
IFN-α (Table 24, donor 28237): 993 pg/mL
IFN-γ (Table 24, donor 28237): 1396 pg/mL
IFN-α mean [2]: 434 pg/mL
IFN-γ mean [2]: 503 pg/mL
IFN-a (donor 28185, Table 15): 2550 pg/mL
IFN-g (donor 28185, Table 15): 163 pg/mL
IFN-a (donor 28186, Table 15): 446 pg/mL
IFN-g (donor 28186, Table 15): 22 pg/mL
IFN-a (donor 28187, Table 15): 118 pg/mL
IFN-g (donor 28187, Table 15): 195 pg/mL
IFN-a (donor 28188, Table 15): 40 pg/mL
IFN-g (donor 28188, Table 15): 12 pg/mL
IFN-a (pg/ml) mean [3]: 788 pg/mL
IFN-g (pg/ml) mean [3]: 98 pg/mL
IFN-a (pg/ml) ×2 (mean ×2, Table 15): 1577 pg/mL
IFN-g (pg/ml) ×4 (mean ×4, Table 15): 392 pg/mL
IFN-α induction, in words (used alone): induced more IFN-α relative to linear CICs with HEG spacers
